Data: US20260015341A1, “PI3K INHIBITOR, PREPARATION METHOD THEREFOR, AND USE THEREOF” (HINOVA PHARMACEUTICALS INC., priority 2022, published 2026)
pIC50: −log10 of the molar value.

Legend:
MCF-10A cells = experiment: Inhibitory effects on the proliferation of MCF-10A cells (CCK8); type: cell-based; details: 6 days
Protocol: Experimental Example 2: Experiment of Inhibitory Effects on the Proliferation of MCF-10A Cells
MCF-10A cells (Cobioer Bio. #CBP60419MCF) were diluted with complete medium (Cobioer Bio. #CBP60419), seeded in 96-well plate (Corning #3599) at 500 cells/well, and then cultured for 24 h. Then, gradiently diluted compounds were added (starting at a final concentration of 10 μM, 3-fold dilution, 9 dose concentrations), and the final volume was adjusted to 100 μL/well. The plate was incubated at 37° C. under 5% CO2 for 6 days. After the cultivation was completed, CCK8 reagent (Signalway Antibody Bio. #CP002) was added at 10 μL/well, and then the plate was further incubated at 37° C. under 5% CO2 for 2-3 hours. The OD450 nm value was obtained by a microplate reader.
The results are shown in the MCF-OA IC50 column in Table 2.

T47D cells = experiment: Inhibitory effects on the proliferation of T47D cells (CellTiter-Glo); type: cell-based; details: 7 days
Protocol: Experimental Example 3: Experiment of Inhibitory Effects on the Proliferation of T47D Cells
T47D cells (ATCC. #HTB-133) were diluted with RPMI 1640 (Gibco #22400-089) containing 10% FBS (Hyclone #SH30084.03), seeded in 96-well plate (Biosharp #BS-MP-96W) at 1000 cells/well, and then cultured for 24 h. Then, gradiently diluted compounds were added (starting at a final concentration of 10 μM, 3-fold dilution, 9 dose concentrations), and the final volume was adjusted to 150 μL/well. The plate was incubated at 37° C. under […] for 7 days. After the cultivation was completed, CellTiter-Glo reagent (Promega #G7573) was added at 75 μL/well, and then the plate was further incubated at 25° C. for 10 min. After that, the chemiluminescence value was read using an instrument.
The results are shown in the T47D IC50 column in Table 2.

[1] = target: PI3Kα[WT]/[E542K]/[E545K]/[H1047R]/PI3Kβ/γ/δ; experiment: PI3K enzyme activity assay (ADP-Glo); type: biochemical; details: PI3K kinase reaction, isoform not given
Protocol: Experimental Example 1: PI3Kα[WT]/[E542K]/[E545K]/[H1047R]/PI3Kβ/γ/δ Enzyme Activity Assay
PI3Kα[WT], PI3Kα[E542K], PI3Kα[E545K], PI3Kα[H1047R], PI3Kβ, PI3Kγ and PI3Kδ kinase reaction was performed in 384-well plate (PerkinElmer, #6008280), with a reaction system of 4 μL. PI3Kα[WT] enzyme solution (Promega, #V1721) or PI3Kα[E542K] enzyme solution (CarnaBio, #11-413-20N) or PI3Kα[E545K] enzyme solution (CarnaBio, #11-414-20N) or PI3Kα[H1047R] enzyme solution (Promega, #V1741) or PI3Kβ enzyme solution (Promega, #V1751) or PI3Kγ enzyme solution (ThermoFisher, #PV4786) or PI3Kδ enzyme solution (ThermoFisher, #PV6451) were added to 384-well plate, and then gradiently diluted compounds were added (starting at a final concentration of 10 μM, 3-fold dilution, 10 doses), followed by adding PIP2: 3PS (Promega, #V1701) and ATP solution (Promega, #V915B) to the plate. After incubation at 25° C. for 1 h, ADP-Glo reagent buffer (Promega, #V9102) was added to each well. The plate was sealed and incubated at 25° C. for 40 min, and then 10 μL of ADP-Glo detection buffer (Promega, #V9102) was added to each well. After incubating at 25° C. for 40 min, the chemiluminescence value was read using an instrument.
The experimental results are shown in the ADP Glo IC50 column in Table 2.

pIC50 (T47D cells; Homo sapiens, 168 h)	pIC50 [1]	pIC50 (T47D cells)	SMILES	pIC50 (MCF-10A cells; Homo sapiens, 144 h)	pIC50 (MCF-10A cells)
> 6.00	–	–	COC(=O)c1nc(Cl)ccc1NC(C)c1cc(C)cc2c(=O)n(C)c(-c3ccc(OC)cc3)nc12 (centres unmarked) [Compound 106]	< 5.30	–
> 6.00	–	–	Cc1cc([C@@H](C)Nc2ccc(Cl)cc2C(=O)O)c2nc(-c3ccc(F)cn3)n(C)c(=O)c2c1 [Compound 90]	< 5.30	–
> 6.00	–	–	[2H]C([2H])([2H])n1c(-c2ccc(F)cn2)nc2c([C@@H](C)Nc3ccc(F)cc3C(=O)O)cc(F)cc2c1=O [Compound 91]	< 5.30	–
5.30 to 6.00	–	–	[2H]C([2H])([2H])n1c(-c2cccc(F)c2)nc2c([C@@H](C)Nc3ccc(Cl)nc3C(=O)O)cc(F)cc2c1=O [Compound 89]	< 5.30	–
< 5.30	–	–	Cc1cc([C@@H](C)N[S@+]([O-])C(C)(C)C)c2nc(-c3ccncc3)n(C)c(=O)c2c1 [Compound 108]	< 5.30	–
> 6.00	–	–	Cc1cc([C@@H](C)Nc2ccc(Cl)nc2C(=O)O)c2nc(-c3ccncc3)n(C)c(=O)c2c1 [Compound 109, (R)-6-chloro-3-((1-(3,6-dimethyl-4-oxo-2-(pyridin-4-yl)-3,4-dihydroquinazolin-8-yl)ethyl)amino)pyridinecarboxylic Acid]	< 5.30	–
> 6.00	–	–	Cc1cc([C@@H](C)Nc2ccc(F)cc2C(=O)O)c2nc(-c3ccc(F)cn3)n(C)c(=O)c2c1 [Compound 87]	< 5.30	–
5.30 to 6.00	–	–	CCSc1nc2c([C@@H](C)Nc3ccc(Cl)nc3C(=O)OC)cc(F)cc2c(=O)n1C [Compound 105]	< 5.30	–
< 5.30	–	–	Cc1cc(C(C)N2CCc3ccccc32)c2oc(-c3ccc(F)cc3F)cc(=O)c2c1 (centres unmarked) [Compound 116, 2-(2,4-difluorophenyl)-8-(1-(indolin-1-yl)ethyl)-6-methyl-4H-benzopyran-4-one]	< 5.30	–
> 6.00	–	–	C[C@@H](Nc1ccc(Cl)nc1C(=O)O)c1cc(Cl)cc2c(=O)n(C)c(-c3ncc(Cl)cn3)nc12 [Compound 97]	5.30 to 6.00	–
> 6.00	–	–	[2H]C([2H])([2H])n1c(-c2ccc(C(F)(F)F)nc2)nc2c([C@@H](C)Nc3ccc(Cl)nc3C(=O)O)cc(C)cc2c1=O [Compound 94]	< 5.30	–
> 6.00	–	–	Cc1cc([C@@H](C)Nc2ccc(Cl)nc2C(N)=O)c2nc(-c3ccncc3)n(C)c(=O)c2c1 [Compound 110]	< 5.30	–
> 6.00	–	–	[2H]C([2H])([2H])n1c(-c2cccc(F)c2)nc2c([C@@H](C)Nc3ccc(Cl)nc3C(=O)O)cc(C)cc2c1=O [Compound 93]	< 5.30	–
> 6.00	–	–	COc1ccc(-c2nc3c(C(C)N)cc(C)cc3c(=O)n2C)cc1 (centres unmarked) [Compound 107]	< 5.30	–
> 6.00	–	–	C[C@@H](Nc1ccc(Cl)nc1C(=O)O)c1cc(Cl)cc2c(=O)n(C)c(-c3ncccn3)nc12 [Compound 98]	< 5.30	–
< 5.30	–	–	[2H]C([2H])([2H])n1c(-c2ccc(F)cn2)nc2c([C@@H](C)Nc3ccc(Cl)cc3C(=O)O)cc(F)cc2c1=O [Compound 88, (R)-5-chloro-2-((1-(6-fluoro-2-(5-fluoropyridin-2-yl)-3-deuteromethyl-4-oxo-3,4-dihydroquinazolin-8-yl)ethyl)amino)benzoic Acid]	< 5.30	–

The next lines start with the molecule.

SMILES	pIC50 (T47D cells; Homo sapiens, 168 h)	pIC50 [1]	pIC50 (T47D cells)	pIC50 (MCF-10A cells; Homo sapiens, 144 h)	pIC50 (MCF-10A cells)
Cc1cc([C@@H](C)Nc2ccc(Cl)nc2C(=O)OC(C)(C)C)c2nc(-c3c(C)noc3C)n(C)c(=O)c2c1 [Compound 50]	5.30 to 6.00	–	–	< 5.30	–
Cc1cc([C@@H](C)Nc2ccccc2C(=O)O)c2nc(N3CCC(C)(C)CC3)[nH]c(=O)c2c1 [Compound 4, (R)-2-((1-(2-(4,4-dimethylpiperidin-1-yl)-6-dimethyl-4-oxo-3,4-dihydroquinazolin-8-yl)ethyl)amino)benzoic Acid]	–	5.30 to 6.00	–	–	–
Cc1cc([C@@H](C)Nc2ccccc2C(=O)O)c2nc(-c3c(C)noc3C)n(C)c(=O)c2c1 [Compound 51]	< 5.30	–	–	< 5.30	–
Cc1cc([C@@H](C)Nc2ccccc2C(O)C(F)(F)F)c2oc(-c3ccc(F)cc3)cc(=O)c2c1 (single isomer, unassigned) [Compound 67]	5.30 to 6.00	–	–	< 5.30	–
C[C@@H](Nc1cc(F)ccc1C(=O)O)c1cc(F)cc2c(=O)n(C)c(-c3ccc(F)cn3)nc12 [Compound 81]	< 5.30	–	–	< 5.30	–
Cc1cc([C@@H](C)Nc2ccccc2C(N)=O)c2oc(-c3ccc(F)cc3F)cc(=O)c2c1 [Compound 47]	> 6.00	–	–	< 5.30	–
COC(=O)c1occc1N[C@H](C)c1cc(C)cc2c(=O)cc(-c3ccc(F)cc3F)oc12 [Compound 63, methyl (R)-3-((1-(2-(2,4-difluorophenyl)-6-methyl-4-oxo-4H-chromen-8-yl)ethyl)amino)furan-2-carboxylate]	5.30 to 6.00	–	–	< 5.30	–
COC(=O)c1nc(Cl)ccc1N[C@H](C)c1cc(C)cc2c(=O)nc(-c3ccc(C(F)(F)F)nc3)n(C)c12 [Compound 113]	–	–	–	< 5.30	–
Cc1ccc(N[C@H](C)c2cc(C)cc3c(=O)n(C)c(-c4c(F)cccc4F)nc23)c(C(=O)O)c1 [Compound 38]	–	> 6.00	–	–	–
Cc1cc([C@@H](C)N[S@+]([O-])C(C)(C)C)c2nc(N3CCC(C)(C)CC3)n(C)c(=O)c2c1 [Compound 5]	–	5.30 to 6.00	–	–	–
C[C@@H](Nc1c(C(=O)O)cnn1C)c1cc(Cl)cc2c(=O)n(C)c(-c3ccc(F)cn3)nc12 [Compound 86]	< 5.30	–	–	< 5.30	–
COc1ccc(-c2nc3c([C@@H](C)Nc4ccc(Cl)nc4C(=O)O)cc(C)cc3c(=O)n2C)cc1 [Compound 111]	–	–	–	< 5.30	–
C[C@@H](Nc1sccc1C(=O)O)c1cc(F)cc2c(=O)n(C)c(-c3ccc(F)cn3)nc12 [Compound 84]	< 5.30	–	–	< 5.30	–
Cc1cc([C@@H](C)Nc2ccc(Cl)nc2C(=O)O)c2nc(-c3ccc(C(F)(F)F)cn3)n(C)c(=O)c2c1 [Compound 75]	5.30 to 6.00	–	–	< 5.30	–
COc1ccc(-c2nc3c([C@@H](C)Nc4ccc(Cl)nc4C(N)=O)cc(C)cc3c(=O)n2C)cc1 [Compound 112]	–	–	–	5.30 to 6.00	–
Cc1cc([C@@H](C)Nc2cc(F)ccc2C(=O)O)c2nc(-c3ccc(F)cn3)n(C)c(=O)c2c1 [Compound 78]	5.30 to 6.00	–	–	< 5.30	–
C[C@@H](Nc1cccc(F)c1C(=O)O)c1cc(F)cc2c(=O)n(C)c(-c3ccccc3)nc12 [Compound 79]	5.30 to 6.00	–	–	< 5.30	–
Cc1cc([C@@H](C)Nc2ccccc2C(=O)OC(C)(C)C)c2nc(-c3c(C)noc3C)n(C)c(=O)c2c1 [Compound 49]	5.30 to 6.00	–	–	< 5.30	–
C[C@@H](Nc1ccc(Cl)nc1C(=O)O)c1cc(Cl)cc2c(=O)n(C)c(-c3ccc(F)cn3)nc12 [Compound 83]	> 6.00	–	–	< 5.30	–
Cc1cc([C@@H](C)Nc2ccccc2C(O)C(F)(F)F)c2oc(-c3ccc(F)cc3)cc(=O)c2c1 (single isomer, unassigned) [Compound 68]	–	–	5.30 to 6.00	–	< 5.30
COC(=O)c1nc(Cl)ccc1N[C@@H](C)c1cc(C)cc2c(=O)nc(-c3ccc(C(F)(F)F)nc3)n(C)c12 [Compound 114]	–	–	–	< 5.30	–
C[C@@H](Nc1ccccc1C(=O)O)c1cc(F)cc2c(=O)n(C)c(-c3ccc(F)cn3)nc12 [Compound 76]	5.30 to 6.00	–	–	< 5.30	–
Cc1cc([C@@H](C)Nc2ccccc2C(=NO)C(F)(F)F)c2oc(-c3ccc(F)cc3F)cc(=O)c2c1 (stereo in doubt) [Compound 64, (R,E)-2-(2,4-difluorophenyl)-6-methyl-8-(1-((2-(2,2,2-trifluoro-1-(hydroxyimino)ethyl)phenyl)amino)ethyl)-4H-chromen-4-one]	5.30 to 6.00	–	–	< 5.30	–
